From patent US20160206642A1, “CLOCK GENE EXPRESSION LEVEL REGULATOR” (SUNTORY HOLDINGS LIMITED, priority 2013, published 2016)

How the values were obtained:
Bmal1 clock gene [1] = experiment: Bmal1 clock gene expression in HepG2 cells by qPCR; assay type: cell-based, human; conditions: HepG2, 50 μg/mL, eight hours after addition, DMSO control
Method: (§1) Cultured cells (human liver cancer-derived cell line HepG2) were seeded at 2.5×10^3 cells/cm^2 in a T-75 flask (BD Falcon™), and medium replacement (RPMI1640, 10% FBS) was performed every three days. The cells reaching 80% confluence were passaged at a concentration of 4.2×10^4 cells/mL in a 6-well plate (BD Falcon™), and in order to entrain the phases of the circadian rhythms of the cells, the medium was replaced with a low-serum medium (RPMI1640, 2% FBS) after three days. Three days after the replacement with a low-serum medium, the cells were subjected to testing. A solution of the test substance in DMSO (50 μg/μL) was prepared and added to the 6-well plate to give a final concentration of the test substance of 50 μg/mL. As a control, DMSO was added to the 6-well plate (to give a final concentration of 0.1%).
(§2) Eight hours after the addition of the test substance, the cells were harvested, and mRNA was extracted according to a conventional method. The extracted mRNA was used to analyze the expression levels of the Bmal1 and Per1 clock genes by qPCR (with Applied Biosystems 7900HT Fast Real-Time PCR System).

Per1 clock gene [2] = experiment: Per1 clock gene expression in HepG2 cells by qPCR; assay type: cell-based, human; conditions: HepG2, 50 μg/mL, eight hours after addition, DMSO control
Method: as §1, §2

Bmal1 clock gene [3] = experiment: Bmal1 clock gene expression in liver of SD rats by quantitative PCR; assay type: in vivo; conditions: 200 mg/5 mL/kg orally once daily for 5 days, sampled four hours after the last treatment
Method: (§3) Seven-week-old male SD rats were habituated for one week and then classified into a test food group (isolated oleuropein group) and a control group (each group consisting of 6 animals). Next, the isolated oleuropein was dissolved in distilled water (produced by Otsuka Pharmaceutical Co., Ltd.), and the solution was orally administered forcibly to the test food group at a dose of 200 mg/5 mL/kg once daily for 5 days. The control food group was orally fed forcibly with distilled water (produced by Otsuka Pharmaceutical Co., Ltd.) at a dose of 5 mL/kg once daily for 5 days. Four hours after the last treatment, liver sampling was done.
(§4) From the liver samples collected, total RNA was extracted according to a conventional method, and used to analyze the expression levels of the Bmal1 and Per1 clock genes by quantitative PCR (with Applied Biosystems 7900HT Fast Real-Time PCR System).

Per1 clock gene [4] = experiment: Per1 clock gene expression in liver of SD rats by quantitative PCR; assay type: in vivo; conditions: 200 mg/5 mL/kg orally once daily for 5 days, sampled four hours after the last treatment
Method: as §3, §4

SMILES	Bmal1 expression (Bmal1 clock gene [1])	Per1 expression (Per1 clock gene [2])	Bmal1 expression as compared to the control group (Bmal1 clock gene [3])	Per1 expression as compared to the control group (Per1 clock gene [4])
COC(=O)C1=CO[C@@H](C)[C@@H](C=O)C1CC(=O)OCCc1ccc(O)c(O)c1 (mixture of isomers) [3,4-DHPEA-EA, 3,4-Dihydroxyphenylethanol-elenolic acid]	reduced	increasing		
C/C=C1/[C@H](O[C@@H]2O[C@H](CO)[C@@H](O)[C@H](O)[C@H]2O)OC=C(C(=O)OC)[C@H]1CC(=O)OCCc1ccc(O)c(O)c1 [isolated oleuropein, Oleuropein]			significant decrease	significant increase
